Patent US20100075370A1, “METHOD FOR DETERMINATION OF CELL VIABILITY BY USING FLOW CYTOMETRY WITH FIXED VOLUME ACQUISITION” (TUMORTEC GMBH, priority 2006, published 2010)

Tested on: patient samples (pBMC from CLL patients)
Test: DiSC assay, chemosensitivity index Ci
Format: cell-based, human
Experimental: (2) A more complex standardization is the calculation of an index. In case of the chemosensitivity testing it is not a single value that has to be standardized. The chemosensitivity towards a drug is tested with several concentrations of the drug in parallel in a cell culture assay. […] This method was adopted for the present invention from the analysis of DiSC assays (Staib et al., British Journal of Haematology, 2005, 128, 783-791). The Chemosensitivity Index Ci was designed as a prognostic index for ex vivo chemosensitivity assays. Assay results were expressed as percent tumor cell survival (% TCS). The dose-response curve as a function of the dose-response relationship may be mathematically described by a […] regression model (FIG. 4). The dose-response curve was defined as CS=c1*e^conc*c2 % with cell survival (CS), drug concentration (conc) and the constants c1 and c2. c1 represented the y-axis distance and c2 the slope of the curve. The area under the curve (AUC) as an exact measure for the total dose response relation was defined as AUC=−e^c1/c2, on condition that c2 is less than 0, otherwise AUC is infinite. The chemosensitivity index, Ci, was set up as Ci=e^−AUC*c with a domain between 0 and 1. The drug-specific constant c was used for adjusting the Ci-value of 0.5 as the cut-off point between resistance and sensitivity. The constant c was defined as
with AUCcut-off as the smallest AUC value among all clinical non-responding patients of the training data set. Obviously, all cytotoxic agents given for treatment were ineffective in these patients. The cut-off Ci value must be adjusted to 0.5 for prognosis of the effect of the drug on a patient in vivo when the drug is tested on said patient's cells in vitro using the method of the present invention. Ci values of 0-0.5 indicated resistance and values above 0.5 predicted sensitivity against the drug tested.
The chemosensitivity index Ci based on the DiSC assay as described in Staib, P. et al., Br. J. Haematol., 128(6):783-91 (2005) is known to have a very high accuracy of prediction (98%) for the clinical outcome of a particular chemotherapy (Staib, P. et al., Br. J. Haematol., 128(6):783-91 (2005)). In order to evaluate the accuracy of the cytotoxicity assay as described in example 1 (“new method”), the Ci determination was performed for assay results of patient samples analyzed with the traditional DiSC assay and—in parallel—with the new assay method described in example 1. In total, 22 patient samples were analyzed. Fludara® was used in both assays. The cytotoxicity assay of example 1 was performed as described therein, and the DiSC assay was performed as described in Staib, P. et al., Br. J. Haematol., 128(6):783-91 (2005).

SMILES: Nc1nc(F)nc2c1ncn2[C@@H]1O[C@H](COP(=O)(O)O)[C@@H](O)[C@@H]1O [Fludarabine phosphate, 2-Fluoro-9-(5-O-phosphono-β-D-arabinofuranosyl)-9H-purin-6-amine]
- Ci (DiSC-Assay) (patient #1): 0.99
- prediction (DiSC-Assay) (patient #1): sensitive (values above 0.5 predicted sensitivity against the drug tested)
- Ci (DiSC-Assay) (patient #2): 0.98
- prediction (DiSC-Assay) (patient #2): sensitive (values above 0.5 predicted sensitivity against the drug tested)
- Ci (DiSC-Assay) (patient #3): 0.97
- prediction (DiSC-Assay) (patient #3): sensitive (values above 0.5 predicted sensitivity against the drug tested)
- Ci (DiSC-Assay) (patient #4): 0.95
- prediction (DiSC-Assay) (patient #4): sensitive (values above 0.5 predicted sensitivity against the drug tested)
- Ci (DiSC-Assay) (patient #5): 0.90
- prediction (DiSC-Assay) (patient #5): sensitive (values above 0.5 predicted sensitivity against the drug tested)
- Ci (DiSC-Assay) (patient #6): 0.89
- prediction (DiSC-Assay) (patient #6): sensitive (values above 0.5 predicted sensitivity against the drug tested)
- Ci (DiSC-Assay) (patient #7): 0.85
- prediction (DiSC-Assay) (patient #7): sensitive (values above 0.5 predicted sensitivity against the drug tested)
- Ci (DiSC-Assay) (patient #8): 0.81
- prediction (DiSC-Assay) (patient #8): sensitive (values above 0.5 predicted sensitivity against the drug tested)
- Ci (DiSC-Assay) (patient #9): 0.75
- prediction (DiSC-Assay) (patient #9): sensitive (values above 0.5 predicted sensitivity against the drug tested)
- Ci (DiSC-Assay) (patient #10): 0.70
- prediction (DiSC-Assay) (patient #10): sensitive (values above 0.5 predicted sensitivity against the drug tested)
- Ci (DiSC-Assay) (patient #11): 0.68
- prediction (DiSC-Assay) (patient #11): sensitive (values above 0.5 predicted sensitivity against the drug tested)
- Ci (DiSC-Assay) (patient #12): 0.61
- prediction (DiSC-Assay) (patient #12): sensitive (values above 0.5 predicted sensitivity against the drug tested)
- Ci (DiSC-Assay) (patient #13): 0.60
- prediction (DiSC-Assay) (patient #13): sensitive (values above 0.5 predicted sensitivity against the drug tested)
- Ci (DiSC-Assay) (patient #14): 0.57
- prediction (DiSC-Assay) (patient #14): sensitive (values above 0.5 predicted sensitivity against the drug tested)
- Ci (DiSC-Assay) (patient #15): 0.55
- prediction (DiSC-Assay) (patient #15): sensitive (values above 0.5 predicted sensitivity against the drug tested)
- Ci (DiSC-Assay) (patient #16): 0.50
- prediction (DiSC-Assay) (patient #16): resistant (Ci values of 0-0.5 indicated resistance)
- Ci (DiSC-Assay) (patient #17): 0.47
- prediction (DiSC-Assay) (patient #17): resistant (Ci values of 0-0.5 indicated resistance)
- Ci (DiSC-Assay) (patient #18): 0.46
- prediction (DiSC-Assay) (patient #18): resistant (Ci values of 0-0.5 indicated resistance)
- Ci (DiSC-Assay) (patient #19): 0.43
- prediction (DiSC-Assay) (patient #19): resistant (Ci values of 0-0.5 indicated resistance)
- Ci (DiSC-Assay) (patient #20): 0.39
- prediction (DiSC-Assay) (patient #20): resistant (Ci values of 0-0.5 indicated resistance)
- Ci (DiSC-Assay) (patient #21): 0.34
- prediction (DiSC-Assay) (patient #21): resistant (Ci values of 0-0.5 indicated resistance)
- Ci (DiSC-Assay) (patient #22): 0.32
- prediction (DiSC-Assay) (patient #22): resistant (Ci values of 0-0.5 indicated resistance)
